Data: patent US6737383B1, “Herbicidal oxadiazolidines” (priority 1999, dated 2004)

Experiments:
blackgrass = test: Test B pre/postemergence blackgrass; type: in vivo, Alopecurus myosuroides
In short: (§1)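 Herbicidal effect was estimated by eye on a ten-point control scale after plants spent twelve to sixteen days in a greenhouse following soil or foliar treatment. Foliar sprays targeted plants at one to four leaves; all doses were formulated in a non-phytotoxic solvent with surfactant.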

surinam grass = test: Test B pre/postemergence surinam grass; type: in vivo, Brachiaria decumbens
In short: as §1

cocklebur = test: Test B pre/postemergence cocklebur; type: in vivo, Xanthium strumarium
In short: as §1

corn = test: Test B pre/postemergence corn; type: in vivo, Zea mays
In short: as §1

crabgrass = test: Test B pre/postemergence crabgrass; type: in vivo, Digitaria sanguinalis
In short: as §1

giant foxtail = test: Test B pre/postemergence giant foxtail; type: in vivo, Setaria faberii
In short: as §1

morningglory = test: Test B pre/postemergence morningglory; type: in vivo, Ipomoea hederacea
In short: as §1

rape = test: Test B pre/postemergence rape; type: in vivo, Brassica napus
In short: as §1

soybean = test: Test B pre/postemergence soybean; type: in vivo, Glycine max
In short: as §1

sugar beet = test: Test B pre/postemergence sugar beet; type: in vivo, Beta vulgaris; settings: for Plant response rating, Sugarbeets: Rate 250 g/ha
In short: as §1

velvetleaf = test: Test B pre/postemergence velvetleaf; type: in vivo, Abutilon theophrasti; settings: for Plant response rating, Velvetleaf: Rate 250 g/ha
In short: as §1

wheat = test: Test B pre/postemergence wheat; type: in vivo, Triticum aestivum; settings: for Plant response rating, Wheat: Rate 250 g/ha
In short: as §1

wild oat = test: Test B pre/postemergence wild oat; type: in vivo, Avena fatua; settings: for Plant response rating, Wild oats: Rate 250 g/ha
In short: as §1

purple nutsedge = test: Test B pre/postemergence purple nutsedge; type: in vivo, Cyperus rotundus
In short: as §1

smallflower flatsedge = test: Test B flood test smallflower flatsedge; type: in vivo, Cyperus difformis
In short: (§2)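 Read-out is a visual response score from 0 (no effect) to 10 (complete control), assigned by comparison with untreated controls. Treatment was applied at the 2-leaf stage, and plants stayed in the greenhouse for twelve to sixteen days before scoring.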

duck salad = test: Test B flood test duck salad; type: in vivo, Heteranthera limosa
In short: as §2

[1] = Postemergence, Rate 125 g/ha, scale of 0 to 10 where 0 is no effect and 10 is complete control
[2] = Postemergence, Rate 250 g/ha, scale 0 to 10, 0 no effect, 10 complete control
[3] = Preemergence, Rate 62 g/ha, scale 0 to 10 (0 no effect, 10 complete control)
[4] = Preemergence, Rate 125 g/ha, scale 0 to 10 (0 no effect, 10 complete control)
[5] = Preemergence, Rate 250 g/ha, scale of 0 to 10 where 0 is no effect and 10 is complete control
[6] = Preemergence, Rate 500 g/ha, scale 0 to 10 (0 no effect, 10 complete control)
[7] = Rate 62 g/ha, Postemergence, scale of 0 to 10 where 0 is no effect and 10 is complete control
[8] = Rate 500 g/ha, Postemergence, scale 0 to 10, 0 no effect, 10 complete control
[9] = Preemergence, Rate 125 g/ha, 0 is no effect, 10 is complete control
[10] = Preemergence, scale of 0 to 10 where 0 is no effect and 10 is complete control
[11] = Postemergence, scale 0 to 10, 0 is no effect, 10 is complete control
[12] = Postemergence (flood test species), Rate 125 g/ha, scale of 0 to 10 where 0 is no effect and 10 is complete control
[13] = Rate 62 g/ha, Postemergence section, flood test species, scale of 0 to 10 where 0 is no effect and 10 is complete control
[14] = Rate 250 g/ha, headed Pre-emergence (flood test species), scale 0 to 10 (0 no effect, 10 complete control)
[15] = Rate 500 g/ha, headed Pre-emergence (flood test species), scale 0 to 10 (0 no effect, 10 complete control)
[16] = Rate 500 g/ha, listed under Postemergence (flood test species), scale 0 to 10, 0 no effect, 10 complete control
[17] = Rate 2000 g/ha, Pre-emergence (as headed), scale 0 to 10

CC(C)N(C(=O)n1oc(=O)n(C(C)C)c1=O)c1ccc(F)cc1F [Compound 109]
Blackgrass plant response rating (blackgrass; [1]): 8 | Blackgrass plant response rating (blackgrass; [2]): 8 | Blackgrass plant response rating (blackgrass; [3]): 8 | Plant response rating, Blackgrass (blackgrass; [4]): 8 | Plant response rating, Blackgrass (blackgrass; [5]): 10 | Blackgrass plant response rating (blackgrass; [6]): 10 | Blackgrass plant response rating (blackgrass; [7]): 7 | Blackgrass plant response rating (blackgrass; [8]): 8 | B. signalgrass plant response rating (surinam grass; Postemergence, Rate 62 g/ha, scale 0 to 10, 0 is no effect, 10 is complete control): 7 | B. signalgrass plant response rating (surinam grass; [2]): 8 | B. signalgrass plant response rating (surinam grass; [3]): 9 | Plant response rating, B. signalgrass (surinam grass; [4]): 9 | Plant response rating, B. signalgrass (surinam grass; [5]): 10 | B. signalgrass plant response rating (surinam grass; [6]): 10 | B. signalgrass plant response rating (surinam grass; Rate 125 g/ha, Postemergence, scale 0 to 10, 0 no effect, 10 complete control): 7 | B. signalgrass plant response rating (surinam grass; Rate 500 g/ha, Postemergence, scale of 0 to 10 where 0 is no effect and 10 is complete control): 8 | Cocklebur plant response rating (cocklebur; [1]): 3 | Cocklebur plant response rating (cocklebur; [2]): 4 | Cocklebur plant response rating (cocklebur; [3]): 0 | Plant response rating, Cocklebur (cocklebur; [4]): 0 | Plant response rating, Cocklebur (cocklebur; [5]): 0 | Cocklebur plant response rating (cocklebur; [6]): 5 | Cocklebur plant response rating (cocklebur; [7]): 2 | Cocklebur plant response rating (cocklebur; [8]): 5 | Corn plant response rating (corn; [1]): 0 | Corn plant response rating (corn; [2]): 3 | Corn plant response rating (corn; [3]): 0 | Plant response rating, Corn (corn; [4]): 3 | Plant response rating, Corn (corn; [5]): 7 | Corn plant response rating (corn; [6]): 9 | Corn plant response rating (corn; [7]): 0 | Corn plant response rating (corn; [8]): 5 | Crabgrass plant response rating (crabgrass; [1]): 9 | Crabgrass plant response rating (crabgrass; [2]): 9 | Crabgrass plant response rating (crabgrass; [3]): 10 | Plant response rating, Crabgrass (crabgrass; [4]): 10 | Plant response rating, Crabgrass (crabgrass; [5]): 10 | Crabgrass plant response rating (crabgrass; [6]): 10 | Crabgrass plant response rating (crabgrass; [7]): 8 | Crabgrass plant response rating (crabgrass; [8]): 9 | Giant foxtail plant response rating (giant foxtail; [1]): 9 | Giant foxtail plant response rating (giant foxtail; [2]): 9 | Giant foxtail plant response rating (giant foxtail; [3]): 10 | Plant response rating, Giant foxtail (giant foxtail; [4]): 10 | Plant response rating, Giant foxtail (giant foxtail; [5]): 10 | Giant foxtail plant response rating (giant foxtail; [6]): 10 | Giant foxtail plant response rating (giant foxtail; [7]): 8 | Giant foxtail plant response rating (giant foxtail; [8]): 9 | Morningglory plant response rating (morningglory; [1]): 3 | Morningglory plant response rating (morningglory; [2]): 5 | Morningglory plant response rating (morningglory; [3]): 0 | Plant response rating, Morningglory (morningglory; [4]): 5 | Plant response rating, Morningglory (morningglory; [5]): 6 | Morningglory plant response rating (morningglory; [6]): 10 | Morningglory plant response rating (morningglory; [7]): 3 | Morningglory plant response rating (morningglory; [8]): 5 | Rape plant response rating (rape; [1]): 3 | Rape plant response rating (rape; [2]): 4 | Rape plant response rating (rape; [3]): 7 | Plant response rating, Rape (rape; [4]): 8 | Plant response rating, Rape (rape; [5]): 9 | Rape plant response rating (rape; [6]): 10 | Rape plant response rating (rape; [7]): 3 | Rape plant response rating (rape; [8]): 6 | Soybean plant response rating (soybean; [1]): 6 | Soybean plant response rating (soybean; [3]): 0 | Plant response rating, Soybean (soybean; [4]): 7 | Plant response rating, Soybean (soybean; [5]): 8 | Soybean plant response rating (soybean; [6]): 9 | Soybean plant response rating (soybean; [7]): 4 | Plant response rating, Soybean (soybean; Rate 250 g/ha, Postemergence, scale 0 to 10, 0 is no effect, 10 is complete control): 7 | Soybean plant response rating (soybean; [8]): 7 | Sugarbeets plant response rating (sugar beet; [1]): 4 | Sugarbeets plant response rating (sugar beet; [3]): 8 | Sugarbeets plant response rating (0 to 10 scale) (sugar beet; [9]): 10 | Plant response rating, Sugarbeets (sugar beet; [10]): 10 | Sugarbeets plant response rating (sugar beet; [6]): 10 | Sugarbeets plant response rating (sugar beet; [7]): 3 | Plant response rating, Sugarbeets (sugar beet; [11]): 6 | Sugarbeets plant response rating (sugar beet; [8]): 7 | Velvetleaf plant response rating (velvetleaf; [1]): 2 | Velvetleaf plant response rating (velvetleaf; [3]): 5 | Velvetleaf plant response rating (0 to 10 scale) (velvetleaf; [9]): 7 | Plant response rating, Velvetleaf (velvetleaf; [10]): 10 | Velvetleaf plant response rating (velvetleaf; [6]): 10 | Velvetleaf plant response rating (velvetleaf; [7]): 0 | Plant response rating, Velvetleaf (velvetleaf; [11]): 6 | Velvetleaf plant response rating (velvetleaf; [8]): 6 | Wheat plant response rating (wheat; [1]): 0 | Wheat plant response rating (wheat; [3]): 0 | Wheat plant response rating (0 to 10 scale) (wheat; [9]): 5 | Plant response rating, Wheat (wheat; [10]): 9 | Wheat plant response rating (wheat; [6]): 10 | Wheat plant response rating (wheat; [7]): 0 | Plant response rating, Wheat (wheat; [11]): 5 | Wheat plant response rating (wheat; [8]): 6 | Wild oats plant response rating (wild oat; [1]): 0 | Wild oats plant response rating (wild oat; [3]): 8 | Wild oats plant response rating (0 to 10 scale) (wild oat; [9]): 10 | Plant response rating, Wild oats (wild oat; [10]): 10 | Wild oats plant response rating (wild oat; [6]): 10 | Wild oats plant response rating (wild oat; [7]): 0 | Plant response rating, Wild oats (wild oat; [11]): 4 | Wild oats plant response rating (wild oat; [8]): 7 | Nutsedge plant response rating (purple nutsedge; [1]): 0 | Nutsedge plant response rating (purple nutsedge; [2]): 0 | Nutsedge plant response rating (purple nutsedge; [3]): 0 | Plant response rating, Nutsedge (purple nutsedge; [4]): 0 | Plant response rating, Nutsedge (purple nutsedge; [5]): 0 | Nutsedge plant response rating (purple nutsedge; [6]): 0 | Nutsedge plant response rating (purple nutsedge; [7]): 0 | Nutsedge plant response rating (purple nutsedge; [8]): 4 | S. Flatsedge plant response rating (smallflower flatsedge; [12]): 0 | S. Flatsedge plant response rating (smallflower flatsedge; Pre-emergence, Rate 1000 g/ha, scale 0 to 10 (0 no effect, 10 complete control)): 8 | S. Flatsedge plant response rating (smallflower flatsedge; [13]): 0 | Plant response rating, S. Flatsedge (smallflower flatsedge; Rate 250 g/ha, Postemergence (flood test), scale 0 to 10, 0 is no effect, 10 is complete control): 0 | S. Flatsedge plant response rating (smallflower flatsedge; [14]): 0 | Plant response rating, S. Flatsedge (smallflower flatsedge; [15]): 0 | S. Flatsedge plant response rating (smallflower flatsedge; [16]): 0 | S. Flatsedge plant response rating (smallflower flatsedge; [17]): 8 | Ducksalad plant response rating (duck salad; [12]): 0 | Ducksalad plant response rating (duck salad; [13]): 0 | Ducksalad plant response rating (duck salad; [14]): 0 | Plant response rating, Ducksalad (duck salad; [15]): 0 | Ducksalad plant response rating (duck salad; [16]): 0 | Ducksalad plant response rating (duck salad; Rate 1000 g/ha, Pre-emergence (as headed), scale 0 to 10): 1 | Ducksalad plant response rating (duck salad; [17]): 6 | Ducksalad plant response rating (duck salad; flood test, listed under Postemergence, Rate 250 g/ha, scale 0 to 10, 0 no effect, 10 complete control): 0
